Reference: ChEMBL document CHEMBL1122789, “Synthesis and biological activity of structural analogues of the anticancer benzophenanthridine alkaloid nitidine chloride” (1984)

Key:
[1] = tested on: Lewis lung carcinoma cell line; assay: Evaluated for anticancer activity in survival tumor system Lewis lung (LL) carcinoma at a dose of 12.5 mg/kg; Number of Tested survived/number of control survived (10/10); assay type: functional, Mus musculus
[2] = tested on: L1210; assay: Evaluated for anticancer activity in survival tumor system L1210 lymphoid leukemia at a dose of 6.25 mg/kg, value was reported as weight difference; assay type: functional, Mus musculus
[3] = tested on: L1210; assay: Evaluated for anticancer activity in survival tumor system L1210 lymphoid leukemia at dose 50 mg/kg; assay type: functional, Mus musculus
[4] = tested on: B16; assay: Evaluated for anticancer activity in survival tumor system B16 melanocarcinoma at a dose of 200 mg/kg, value was reported as weight difference; assay type: functional, Mus musculus
[5] = Evaluated for anticancer activity in tumor inhibition system colon 38 tumors at a dose of 50 mg/kg; Number of Tested survived/number of control survived (10/10); assay type: functional, Mus musculus
[6] = tested on: Lewis lung carcinoma cell line; assay: Evaluated for anticancer activity in survival tumor system Lewis lung (LL) carcinoma at dose 50 mg/kg; assay type: functional, Mus musculus
[7] = tested on: B16; assay: Evaluated for anticancer activity in survival tumor system B16 melanocarcinoma at dose 25 mg/kg; assay type: functional, Mus musculus
[8] = tested on: Lewis lung carcinoma cell line; assay: Evaluated for anticancer activity in survival tumor system Lewis lung (LL) carcinoma at dose 12.5 mg/kg; assay type: functional, Mus musculus
[9] = Evaluated for anticancer activity in tumor inhibition system CD8F mammary tumor at a dose of 62 mg/kg, value was reported as weight difference; assay type: functional, Mus musculus
[10] = tested on: B16; assay: Evaluated for anticancer activity in survival tumor system B16 melanocarcinoma at a dose of 25 mg/kg; Number of Tested survived/number of control survived (10/10); assay type: functional, Mus musculus
[11] = tested on: MX1; assay: Evaluated for anticancer activity in tumor inhibition system MX-1 breast xenograph at a dose of 150 mg/kg; Number of Tested survived/number of control survived (5/6); settings: Homo sapiens
[12] = Evaluated for anticancer activity in tumor inhibition system colon 38 at a dose of 50 mg/kg, value was reported as weight difference; assay type: functional, Mus musculus
[13] = Evaluated for anticancer activity in tumor inhibition system CD8F1 mammary tumors at a dose of mg/kg;Number of Tested survived/number of control survived (10/10); assay type: functional, Mus musculus
[14] = tested on: Lewis lung carcinoma cell line; assay: Evaluated for anticancer activity in survival tumor system Lewis lung (LL) carcinoma at a dose of 200 mg/kg, value was reported as weight difference; assay type: functional, Mus musculus
[15] = tested on: P388; assay: Evaluated for anticancer activity in survival tumor system P388 lymphocytic leukemia at a dose of 25 mg/kg, value was reported as weight difference; assay type: functional, Mus musculus
[16] = tested on: P388; assay: Evaluated for anticancer activity in survival tumor system P388 lymphocytic leukemia at a dose of 100 mg/kg, value was reported as weight difference; assay type: functional, Mus musculus
[17] = tested on: Lewis lung carcinoma cell line; assay: Evaluated for anticancer activity in survival tumor system Lewis lung (LL) carcinoma at a dose of 50 mg/kg;Number of Tested survived/number of control survived (10/10); assay type: functional, Mus musculus
[18] = tested on: MX1; assay: Evaluated for anticancer activity in tumor inhibition system MX-1 breast xenograph at a dose of 75 mg/kg, value was reported as weight difference; assay type: functional, Homo sapiens
[19] = tested on: P388; assay: Evaluated for anticancer activity in survival tumor system P388 lymphocytic leukemia at a dose of 12.5 mg/kg;Number of Tested survived/number of control survived (5/6); assay type: functional, Mus musculus
[20] = tested on: P388; assay: Evaluated for anticancer activity in survival tumor system P388 lymphocytic leukemia at dose 25 mg/kg; assay type: functional, Mus musculus
[21] = Evaluated for anticancer activity in tumor inhibition system colon 38 tumor at dose 100 mg/kg; assay type: functional, Mus musculus
[22] = tested on: L1210; assay: Evaluated for anticancer activity in survival tumor system L1210 lymphoid leukemia at dose 6.25 mg/kg; assay type: functional, Mus musculus
[23] = tested on: B16; assay: Evaluated for anticancer activity in survival tumor system B16 melanocarcinoma at a dose of 200 mg/kg; Number of Tested survived/number of control survived (4/10); assay type: functional, Mus musculus
[24] = tested on: MX1; assay: Evaluated for anticancer activity in tumor inhibition system MX-1 breast xenograph at dose 150 mg/kg; assay type: functional, Homo sapiens
[25] = tested on: B16; assay: Evaluated for anticancer activity in survival tumor system B16 melanocarcinoma at a dose of 6.25 mg/kg; Number of Tested survived/number of control survived (10/10); assay type: functional, Mus musculus
[26] = tested on: L1210; assay: Evaluated for anticancer activity in survival tumor system L1210 lymphoid leukemia at a dose of 100 mg/kg; Number of Tested survived/number of control survived (6/6); assay type: functional, Mus musculus
[27] = tested on: B16; assay: Evaluated for anticancer activity in survival tumor system B16 melanocarcinoma at a dose of 100 mg/kg; Number of Tested survived/number of control survived (7/10); assay type: functional, Mus musculus
[28] = tested on: B16; assay: Evaluated for anticancer activity in survival tumor system B16 melanocarcinoma at a dose of 50 mg/kg; number of Tested survived/number of control survived; assay type: functional, Mus musculus
[29] = tested on: P388; assay: Evaluated for anticancer activity in survival tumor system P388 lymphocytic leukemia at dose 100 mg/kg; assay type: functional, Mus musculus
[30] = tested on: P388; assay: Evaluated for anticancer activity in survival tumor system P388 lymphocytic leukemia at a dose of 12.5 mg/kg, value was reported as weight difference; assay type: functional, Mus musculus
[31] = tested on: L1210; assay: Evaluated for anticancer activity in survival tumor system L1210 lymphoid leukemia at a dose of 6.25 mg/kg; Number of Tested survived/number of control survived (6/6); assay type: functional, Mus musculus
[32] = tested on: B16; assay: Evaluated for anticancer activity in survival tumor system B16 melanocarcinoma at dose 50 mg/kg; assay type: functional, Mus musculus
[33] = Evaluated for anticancer activity in tumor inhibition system colon 38 at a dose of 100 mg/kg, value was reported as weight difference; assay type: functional, Mus musculus
[34] = tested on: B16; assay: Evaluated for anticancer activity in survival tumor system B16 melanocarcinoma at dose 12.5 mg/kg; assay type: functional, Mus musculus
[35] = tested on: P388; assay: Evaluated for anticancer activity in survival tumor system P388 lymphocytic leukemia at a dose of 100 mg/kg; Number of Tested survived/number of control survived (5/6); assay type: functional, Mus musculus
[36] = Evaluated for anticancer activity in tumor inhibition system CD8F1 mammary tumors at a dose of 125 mg/kg; Number of Tested survived/number of control survived (10/10); assay type: functional, Mus musculus
[37] = tested on: B16; assay: Evaluated for anticancer activity in survival tumor system B16 melanocarcinoma at dose 6.25 mg/kg; assay type: functional, Mus musculus
[38] = tested on: MX1; assay: Evaluated for anticancer activity in tumor inhibition system MX-1 breast xenograph at a dose of 300 mg/kg; Number of Tested survived/number of control survived (1/6); assay type: functional, Homo sapiens
[39] = tested on: P388; assay: Evaluated for anticancer activity in survival tumor system P388 lymphocytic leukemia at dose 50 mg/kg; assay type: functional, Mus musculus
[40] = tested on: L1210; assay: Evaluated for anticancer activity in survival tumor system L1210 lymphoid leukemia at dose 100 mg/kg; assay type: functional, Mus musculus
[41] = tested on: MX1; assay: Evaluated for anticancer activity in tumor inhibition system MX-1 breast xenograph at dose 75 mg/kg; assay type: functional, Homo sapiens
[42] = tested on: Lewis lung carcinoma cell line; assay: Evaluated for anticancer activity in survival tumor system Lewis lung (LL) carcinoma at a dose of 12.5 mg/kg, value was reported as weight difference; assay type: functional, Mus musculus
[43] = tested on: L1210; assay: Evaluated for anticancer activity in survival tumor system L1210 lymphoid leukemia at a dose of 3.125 mg/kg, value was reported as weight difference; assay type: functional, Mus musculus
[44] = tested on: KB; assay: Evaluated in vitro for cytotoxicity against KB cell culture system; assay type: functional; settings: Homo sapiens, read-out: ED50 (the source's name)
[45] = tested on: B16; assay: Evaluated for anticancer activity in survival tumor system B16 melanocarcinoma at a dose of 50 mg/kg, value was reported as weight difference; assay type: functional, Mus musculus

Which Survival [1] does the source give for `COc1cc2c[n+](C)c3c(c2cc1OC)Cc1cc2c(cc1-3)OCO2.[Cl-]` here?
The Survival was 10.

What about the Weight change [2] of the same compound?
The Weight change was -3.2.

And the T/C [3]?
Its T/C is 198%.

And the Weight change [4]?
Its Weight change is -4.2.

What about the Survival [5] of the same compound?
The Survival was 10.

And the T/C [6]?
The T/C was 119%.

What about the T/C [7] of the same compound?
The T/C was 139%.

And the T/C [8]?
The T/C was 97%.

And the Weight change [9]?
Its Weight change is -1.

What about the Survival [10] of the same compound?
Its Survival is 10.

What about the Survival [11] of the same compound?
Its Survival is 5.

And the Weight change [12]?
The Weight change was -0.8.

And the Survival [13]?
Its Survival is 10.

What about the Weight change [14] of the same compound?
The Weight change was -4.9.

And the Weight change [15]?
Its Weight change is -3.6.

What about the Weight change [16] of the same compound?
The Weight change was -5.8.

And the Survival [17]?
The Survival was 10.

What about the Weight change [18] of the same compound?
Its Weight change is -4.5.

What about the Survival [19] of the same compound?
Its Survival is 5.

And the T/C [20]?
Its T/C is 151%.

What about the T/C [21] of the same compound?
Its T/C is 107%.

What about the T/C [22] of the same compound?
Its T/C is 154%.

And the Survival [23]?
Its Survival is 4.

And the T/C [24]?
Its T/C is 35%.

What about the Survival [25] of the same compound?
Its Survival is 10.

What about the Survival [26] of the same compound?
Its Survival is 6.

And the Survival [27]?
Its Survival is 7.

And the Survival [28]?
Its Survival is 10.

What about the T/C [29] of the same compound?
Its T/C is 168%.

And the Weight change [30]?
Its Weight change is -1.4.

What about the Survival [31] of the same compound?
The Survival was 6.

What about the T/C [32] of the same compound?
The T/C was 147%.

And the Weight change [33]?
Its Weight change is -1.9.

What about the T/C [34] of the same compound?
Its T/C is 131%.

And the Survival [35]?
Its Survival is 5.

And the Survival [36]?
Its Survival is 10.

What about the T/C [37] of the same compound?
Its T/C is 148%.

And the Survival [38]?
Its Survival is 1.

What about the T/C [39] of the same compound?
The T/C was 149%.

What about the T/C [40] of the same compound?
The T/C was 95%.

And the T/C [41]?
Its T/C is 102%.

What about the Weight change [42] of the same compound?
The Weight change was -0.9.

What about the Weight change [43] of the same compound?
Its Weight change is -1.9.

What about the EC50 [44] of the same compound?
Its EC50 is 0.038 µg/mL.

What about the Weight change [45] of the same compound?
The Weight change was -4.9.
